# In ChEMBL document CHEMBL1201862, “PubChem BioAssay data set” (2004):
#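 A five-concentration, 48-hour dose response in 96-well plates underlies each endpoint, interpolated linearly between surrounding concentrations. GI50 is the concentration that inhibits growth by half.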 Active and inactive are the calls of the source. Rule as the data show it: active = GI50 up to about 1.1 µM and inactive = higher.
# Key:
# Assay in all cases: DTP human tumour cell line panel, 48 h
# 786-0 = test system: 786-0
# A498 = test system: A498
# A549 = test system: A549
# ACHN = test system: ACHN
# CAKI-1 = test system: CAKI-1
# COLO 205 = test system: COLO 205
# DU-145 = test system: DU-145
# EKVX = test system: EKVX
# HCC 2998 = test system: HCC 2998
# HCT-116 = test system: HCT-116
# HCT-15 = test system: HCT-15
# HOP-62 = test system: HOP-62
# HOP-92 = test system: HOP-92
# HT-29 = test system: HT-29
# Hs-578T = test system: Hs-578T
# IGROV-1 = test system: IGROV-1
# K562 = test system: K562
# KM12 = test system: KM12
# LOX IMVI = test system: LOX IMVI
# M14 = test system: M14
# MCF7 = test system: MCF7
# MDA-MB-435 = test system: MDA-MB-435
# MDA-N = test system: MDA-N
# Malme-3M = test system: Malme-3M
# NCI-H23 = test system: NCI-H23
# NCI-H460 = test system: NCI-H460
# NCI-H522 = test system: NCI-H522
# NCI/ADR-RES = test system: NCI/ADR-RES
# OVCAR-3 = test system: OVCAR-3
# OVCAR-4 = test system: OVCAR-4
# OVCAR-5 = test system: OVCAR-5
# OVCAR-8 = test system: OVCAR-8
# PC-3 = test system: PC-3
# RXF 393 = test system: RXF 393
# SF-268 = test system: SF-268
# SF-295 = test system: SF-295
# SF-539 = test system: SF-539
# SK-MEL-28 = test system: SK-MEL-28
# SK-MEL-2 = test system: SK-MEL-2
# SK-MEL-5 = test system: SK-MEL-5
# SK-OV-3 = test system: SK-OV-3
# SN12C = test system: SN12C
# SNB-19 = test system: SNB-19
# SNB-75 = test system: SNB-75
# SR = test system: SR
# SW-620 = test system: SW-620
# T47D = test system: T47D
# TK-10 = test system: TK-10
# U-251 = test system: U-251
# UACC-257 = test system: UACC-257
# UACC-62 = test system: UACC-62
# UO-31 = test system: UO-31
# BT-549 = test system: BT-549
# CCRF-CEM = test system: CCRF-CEM
# HL-60 = test system: HL-60
# MDA-MB-231 = test system: MDA-MB-231
# MOLT-4 = test system: MOLT-4
# NCI-H226 = test system: NCI-H226
# RPMI-8226 = test system: RPMI-8226
smiles,measurement,setting,value
N#CCCC1(CCC#N)CCCCCCC(CCC#N)(CCC#N)C(=O)C1=O,GI50,786-0,> 100 µM (inactive)
same,GI50,A498,50 µM (inactive)
same,GI50,A549,> 100 µM (inactive)
same,GI50,ACHN,> 100 µM (inactive)
same,GI50,CAKI-1,> 100 µM (inactive)
same,GI50,COLO 205,36.8 µM (inactive)
same,GI50,DU-145,> 100 µM (inactive)
same,GI50,EKVX,> 100 µM (inactive)
same,GI50,HCC 2998,67.1 µM (inactive)
same,GI50,HCT-116,> 100 µM (inactive)
same,GI50,HCT-15,> 100 µM
same,GI50,HOP-62,> 100 µM (inactive)
same,GI50,HOP-92,> 100 µM (inactive)
same,GI50,HT-29,> 100 µM (inactive)
same,GI50,Hs-578T,> 100 µM (inactive)
same,GI50,IGROV-1,> 100 µM (inactive)
same,GI50,K562,> 100 µM (inactive)
same,GI50,KM12,> 100 µM (inactive)
same,GI50,LOX IMVI,> 100 µM (inactive)
same,GI50,M14,> 100 µM (inactive)
same,GI50,MCF7,70.5 µM (inactive)
same,GI50,MDA-MB-435,> 100 µM (inactive)
same,GI50,MDA-N,> 100 µM (inactive)
same,GI50,Malme-3M,> 100 µM (inactive)
same,GI50,NCI-H23,> 100 µM (inactive)
same,GI50,NCI-H460,> 100 µM (inactive)
same,GI50,NCI-H522,> 100 µM (inactive)
same,GI50,NCI/ADR-RES,> 100 µM (inactive)
same,GI50,OVCAR-3,> 100 µM (inactive)
same,GI50,OVCAR-4,> 100 µM (inactive)
same,GI50,OVCAR-5,> 100 µM (inactive)
same,GI50,OVCAR-8,> 100 µM (inactive)
same,GI50,PC-3,> 100 µM (inactive)
same,GI50,RXF 393,> 100 µM (inactive)
same,GI50,SF-268,> 100 µM (inactive)
same,GI50,SF-295,> 100 µM (inactive)
same,GI50,SF-539,> 100 µM (inactive)
same,GI50,SK-MEL-28,> 100 µM (inactive)
same,GI50,SK-MEL-2,> 100 µM (inactive)
same,GI50,SK-MEL-5,> 100 µM (inactive)
same,GI50,SK-OV-3,> 100 µM (inactive)
same,GI50,SN12C,58.2 µM (inactive)
same,GI50,SNB-19,> 100 µM (inactive)
same,GI50,SNB-75,> 100 µM (inactive)
same,GI50,SR,> 100 µM (inactive)
same,GI50,SW-620,> 100 µM (inactive)
same,GI50,T47D,11.9 µM (inactive)
same,GI50,TK-10,> 100 µM (inactive)
same,GI50,U-251,> 100 µM (inactive)
same,GI50,UACC-257,> 100 µM (inactive)
same,GI50,UACC-62,> 100 µM (inactive)
same,GI50,UO-31,3.08 µM (inactive)
CCOC(=O)c1c(SC)nc(-c2ccc(Cl)cc2)sc1=N.[O-][Cl+3]([O-])([O-])O,GI50,786-0,27.3 µM (inactive)
same,GI50,A498,31.5 µM (inactive)
same,GI50,A549,37.7 µM (inactive)
same,GI50,ACHN,40.1 µM (inactive)
same,GI50,BT-549,30 µM (inactive)
same,GI50,CAKI-1,35.5 µM (inactive)
same,GI50,CCRF-CEM,39.9 µM (inactive)
same,GI50,COLO 205,21.8 µM (inactive)
same,GI50,DU-145,40.9 µM (inactive)
same,GI50,EKVX,22 µM (inactive)
same,GI50,HCC 2998,22.7 µM (inactive)
same,GI50,HCT-116,23.1 µM (inactive)
same,GI50,HCT-15,22.9 µM
same,GI50,HL-60,35 µM (inactive)
same,GI50,HOP-62,30.1 µM (inactive)
same,GI50,HOP-92,80.2 µM (inactive)
same,GI50,HT-29,25.8 µM (inactive)
same,GI50,Hs-578T,27.9 µM (inactive)
same,GI50,IGROV-1,20.8 µM (inactive)
same,GI50,K562,34.4 µM (inactive)
same,GI50,KM12,30.8 µM (inactive)
same,GI50,LOX IMVI,36.4 µM (inactive)
same,GI50,M14,45.4 µM (inactive)
same,GI50,MCF7,29 µM (inactive)
same,GI50,MDA-MB-231,41.7 µM (inactive)
same,GI50,MDA-MB-435,34 µM (inactive)
same,GI50,MOLT-4,26.4 µM (inactive)
same,GI50,Malme-3M,20.5 µM (inactive)
same,GI50,NCI-H226,25.9 µM (inactive)
same,GI50,NCI-H23,22.6 µM (inactive)
same,GI50,NCI-H460,26 µM (inactive)
same,GI50,NCI/ADR-RES,23.7 µM (inactive)
same,GI50,OVCAR-3,33.2 µM (inactive)
same,GI50,OVCAR-4,30.8 µM (inactive)
same,GI50,OVCAR-5,59.2 µM (inactive)
same,GI50,OVCAR-8,23.5 µM (inactive)
same,GI50,PC-3,26.1 µM (inactive)
same,GI50,RPMI-8226,37.2 µM (inactive)
same,GI50,RXF 393,33.9 µM (inactive)
same,GI50,SF-268,29.4 µM (inactive)
same,GI50,SF-295,28.2 µM (inactive)
same,GI50,SF-539,32.1 µM (inactive)
same,GI50,SK-MEL-28,61.9 µM (inactive)
same,GI50,SK-MEL-2,20.2 µM (inactive)
same,GI50,SK-MEL-5,15.2 µM (inactive)
same,GI50,SK-OV-3,37.2 µM (inactive)
same,GI50,SN12C,44.4 µM (inactive)
same,GI50,SNB-19,94.4 µM (inactive)
same,GI50,SNB-75,25.1 µM (inactive)
same,GI50,SW-620,48 µM (inactive)
same,GI50,T47D,31.9 µM (inactive)
same,GI50,TK-10,44.3 µM (inactive)
same,GI50,U-251,37.6 µM (inactive)
same,GI50,UACC-257,34.6 µM (inactive)
same,GI50,UACC-62,30.8 µM (inactive)
same,GI50,UO-31,33.8 µM (inactive)
